Test results reported in US12077503B2, “Substituted cyclic amides and their use as herbicides” (FMC CORPORATION, priority 2015, dated 2024).

Columns and labels:
Type in all cases: in vivo
[1] = system: giant foxtail (Setaria faberi); assay: Test G Post-Emergence Protocol; settings: Setaria faberi, post-emergence, 312 h; for pest or weed control at 15.625 g/ha: 15.625 g ai/ha, evaluated after 13 days (100=total damage to plant; 0=no damage to plant), read-out: Foxtail, Giant damage rating; for pest or weed control at 62.5 g/ha: 62.5 g ai/ha, read-out: Foxtail, Giant damage rating (100=total damage to plant; 0=no damage to plant); for pest or weed control at 62.5 g/ha / pest or weed control at 250 g/ha: evaluated after 13 days; for pest or weed control at 250 g/ha: 250 g ai/ha, read-out: damage to plant, Foxtail, Giant (100=total damage to plant; 0=no damage to plant)
Outline: (§1)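 Eight days post-sowing, plants received a spray of test compound (acetone/water 50:50, 0.5% Tween 20) at 15.625, 62.5 or 250 g/ha. Glasshouse regime thereafter: 24/16 °C, 14 h light, 65% humidity. Assessment after 13 days on a 0–100 damage scale.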

[2] = system: velvetleaf (Abutilon theophrasti); assay: Test G Post-Emergence Protocol; settings: Abutilon theophrasti, post-emergence, 312 h; for pest or weed control at 15.625 g/ha: 15.625 g ai/ha, evaluated after 13 days (100=total damage to plant; 0=no damage to plant), read-out: Velvetleaf damage rating; for pest or weed control at 62.5 g/ha: 62.5 g ai/ha, read-out: Velvetleaf damage rating (100=total damage to plant; 0=no damage to plant); for pest or weed control at 62.5 g/ha / pest or weed control at 250 g/ha: evaluated after 13 days; for pest or weed control at 250 g/ha: 250 g ai/ha, read-out: damage to plant, Velvetleaf (100=total damage to plant; 0=no damage to plant)
Outline: as §1

[3] = system: barnyardgrass (Echinochloa crus-galli); assay: Test G Post-Emergence Protocol; settings: Echinochloa crus-galli, post-emergence, 312 h; for pest or weed control at 15.625 g/ha: 15.625 g ai/ha, evaluated after 13 days (100=total damage to plant; 0=no damage to plant), read-out: Barnyardgrass damage rating; for pest or weed control at 62.5 g/ha: 62.5 g ai/ha, read-out: Barnyardgrass damage rating (100=total damage to plant; 0=no damage to plant); for pest or weed control at 62.5 g/ha / pest or weed control at 250 g/ha: evaluated after 13 days; for pest or weed control at 250 g/ha: 250 g ai/ha, read-out: damage to plant, Barnyardgrass (100=total damage to plant; 0=no damage to plant)
Outline: as §1

corn (Zea mays) [4] = assay: Test G Post-Emergence Protocol; settings: Zea mays, post-emergence, 312 h; for plant injury at 15.625 g/ha: 15.625 g ai/ha, evaluated after 13 days (100=total damage to plant; 0=no damage to plant), read-out: Corn damage rating; for plant injury at 62.5 g/ha: 62.5 g ai/ha, read-out: Corn damage rating (100=total damage to plant; 0=no damage to plant); for plant injury at 62.5 g/ha / plant injury at 250 g/ha: evaluated after 13 days; for plant injury at 250 g/ha: 250 g ai/ha, read-out: damage to plant, Corn (100=total damage to plant; 0=no damage to plant)
Outline: as §1

[5] = system: ivy-leaved morning glory (Ipomoea hederacea); assay: Test G Post-Emergence Protocol; settings: Ipomoea, post-emergence, 312 h; for pest or weed control at 15.625 g/ha: 15.625 g ai/ha, evaluated after 13 days (100=total damage to plant; 0=no damage to plant), read-out: Morningglory, Ivy-leaved damage rating; for pest or weed control at 62.5 g/ha: 62.5 g ai/ha, read-out: Morningglory, Ivy-leaved damage rating (100=total damage to plant; 0=no damage to plant); for pest or weed control at 62.5 g/ha / pest or weed control at 250 g/ha: evaluated after 13 days; for pest or weed control at 250 g/ha: 250 g ai/ha, read-out: damage to plant, Morningglory, Ivy-leaved (100=total damage to plant; 0=no damage to plant)
Outline: as §1

[6] = system: redroot pigweed (Amaranthus retroflexus); assay: Test G Post-Emergence Protocol; settings: Amaranthus retroflexus, post-emergence, 312 h; for pest or weed control at 15.625 g/ha: 15.625 g ai/ha, evaluated after 13 days (100=total damage to plant; 0=no damage to plant), read-out: Pigweed, Redroot damage rating; for pest or weed control at 62.5 g/ha: 62.5 g ai/ha, read-out: Pigweed, Redroot damage rating (100=total damage to plant; 0=no damage to plant); for pest or weed control at 62.5 g/ha / pest or weed control at 250 g/ha: evaluated after 13 days; for pest or weed control at 250 g/ha: 250 g ai/ha, read-out: damage to plant, Pigweed, Redroot (100=total damage to plant; 0=no damage to plant)
Outline: as §1

[7] = system: giant foxtail (Setaria faberi); assay: Test G Pre-Emergence Protocol; settings: Setaria faberi, pre-emergence, 312 h, evaluated after 13 days; for pest or weed control at 15.625 g/ha: 15.625 g ai/ha; for pest or weed control at 15.625 g/ha / pest or weed control at 250 g/ha: read-out: Foxtail, Giant damage rating (100=total damage to plant; 0=no damage to plant); for pest or weed control at 62.5 g/ha: 62.5 g ai/ha, 100=total damage to plant, 0=no damage to plant, read-out: plant damage rating, Foxtail, Giant; for pest or weed control at 250 g/ha: 250 g ai/ha
Outline: (§2)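 Test compound in 0.5% Tween 20 acetone/water (50:50) was applied at three rates (15.625, 62.5, 250 g/ha) to soil sown one day earlier. After 13 days plants were scored for injury, where 0 means unaffected and 100 means completely damaged.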

[8] = system: velvetleaf (Abutilon theophrasti); assay: Test G Pre-Emergence Protocol; settings: Abutilon theophrasti, pre-emergence, 312 h, evaluated after 13 days; for pest or weed control at 15.625 g/ha: 15.625 g ai/ha; for pest or weed control at 15.625 g/ha / pest or weed control at 250 g/ha: read-out: Velvetleaf damage rating (100=total damage to plant; 0=no damage to plant); for pest or weed control at 62.5 g/ha: 62.5 g ai/ha, 100=total damage to plant, 0=no damage to plant, read-out: plant damage rating, Velvetleaf; for pest or weed control at 250 g/ha: 250 g ai/ha
Outline: as §2

[9] = system: barnyardgrass (Echinochloa crus-galli); assay: Test G Pre-Emergence Protocol; settings: Echinochloa crus-galli, pre-emergence, 312 h, evaluated after 13 days; for pest or weed control at 15.625 g/ha: 15.625 g ai/ha, read-out: Barnyard grass damage rating (100=total damage to plant; 0=no damage to plant); for pest or weed control at 62.5 g/ha: 62.5 g ai/ha, 100=total damage to plant, 0=no damage to plant, read-out: plant damage rating, Barnyardgrass; for pest or weed control at 250 g/ha: 250 g ai/ha, read-out: Barnyardgrass damage rating (100=total damage to plant; 0=no damage to plant)
Outline: as §2

corn (Zea mays) [10] = assay: Test G Pre-Emergence Protocol; settings: Zea mays, pre-emergence, 312 h, evaluated after 13 days; for plant injury at 15.625 g/ha: 15.625 g ai/ha; for plant injury at 15.625 g/ha / plant injury at 250 g/ha: read-out: Corn damage rating (100=total damage to plant; 0=no damage to plant); for plant injury at 62.5 g/ha: 62.5 g ai/ha, 100=total damage to plant, 0=no damage to plant, read-out: plant damage rating, Corn; for plant injury at 250 g/ha: 250 g ai/ha
Outline: as §2

[11] = system: ivy-leaved morning glory (Ipomoea hederacea); assay: Test G Pre-Emergence Protocol; settings: Ipomoea, pre-emergence, 312 h, evaluated after 13 days; for pest or weed control at 15.625 g/ha: 15.625 g ai/ha, read-out: Morning-glory, Ivy-leaved damage rating (100=total damage to plant; 0=no damage to plant); for pest or weed control at 62.5 g/ha: 62.5 g ai/ha, 100=total damage to plant, 0=no damage to plant, read-out: plant damage rating, Morningglory, Ivy-leaved; for pest or weed control at 250 g/ha: 250 g ai/ha, read-out: Morningglory, Ivy-leaved damage rating (100=total damage to plant; 0=no damage to plant)
Outline: as §2

[12] = system: redroot pigweed (Amaranthus retroflexus); assay: Test G Pre-Emergence Protocol; settings: Amaranthus retroflexus, pre-emergence, 312 h, evaluated after 13 days; for pest or weed control at 15.625 g/ha: 15.625 g ai/ha; for pest or weed control at 15.625 g/ha / pest or weed control at 250 g/ha: read-out: Pigweed, Redroot damage rating (100=total damage to plant; 0=no damage to plant); for pest or weed control at 62.5 g/ha: 62.5 g ai/ha, 100=total damage to plant, 0=no damage to plant, read-out: plant damage rating, Pigweed, Redroot; for pest or weed control at 250 g/ha: 250 g ai/ha
Outline: as §2

Row | Structure (SMILES) | pest or weed control at 15.625 g/ha [1] [%] | pest or weed control at 62.5 g/ha [1] [%] | pest or weed control at 250 g/ha [1] [%] | pest or weed control at 15.625 g/ha [2] [%] | pest or weed control at 62.5 g/ha [2] [%] | pest or weed control at 250 g/ha [2] [%] | pest or weed control at 15.625 g/ha [3] [%] | pest or weed control at 62.5 g/ha [3] [%] | pest or weed control at 250 g/ha [3] [%] | plant injury at 15.625 g/ha (corn (Zea mays) [4]) [%] | plant injury at 62.5 g/ha (corn (Zea mays) [4]) [%] | plant injury at 250 g/ha (corn (Zea mays) [4]) [%] | pest or weed control at 15.625 g/ha [5] [%] | pest or weed control at 62.5 g/ha [5] [%] | pest or weed control at 250 g/ha [5] [%] | pest or weed control at 15.625 g/ha [6] [%] | pest or weed control at 62.5 g/ha [6] [%] | pest or weed control at 250 g/ha [6] [%] | pest or weed control at 15.625 g/ha [7] [%] | pest or weed control at 62.5 g/ha [7] [%] | other results
1 | COc1cc([C@@H]2CN(C)C(=O)[C@H]2C(=O)Nc2cccc(F)c2F)ccn1 (racemic) [Compound 1480] | 60 | 70 | 70 | 0 | 0 | 20 | 50 | 70 | 80 | 20 | 20 | 60 | 0 | 0 | 20 | 0 | 0 | 10 | 40 | 90 | pest or weed control at 250 g/ha [7]: 90%; pest or weed control at 15.625 g/ha [8]: 0%; pest or weed control at 62.5 g/ha [8]: 0%; pest or weed control at 250 g/ha [8]: 10%; pest or weed control at 15.625 g/ha [9]: 30%; pest or weed control at 62.5 g/ha [9]: 80%; pest or weed control at 250 g/ha [9]: 90%; plant injury at 15.625 g/ha (corn (Zea mays) [10]): 20%; plant injury at 62.5 g/ha (corn (Zea mays) [10]): 30%; plant injury at 250 g/ha (corn (Zea mays) [10]): 80%; pest or weed control at 15.625 g/ha [11]: 0%; pest or weed control at 62.5 g/ha [11]: 0%; pest or weed control at 250 g/ha [11]: 70%; pest or weed control at 15.625 g/ha [12]: 0%; pest or weed control at 62.5 g/ha [12]: 0%; pest or weed control at 250 g/ha [12]: 40%
2 | CN1C[C@H](c2ccc(C(F)(F)F)cc2)[C@@H](C(=O)Nc2ccc(Cl)cc2[N+](=O)[O-])C1=O (racemic) [Compound 1432] | 0 | 0 | 0 | 0 | 0 | 0 | 0 | 0 | 0 | 0 | 0 | 0 | 0 | 0 | 0 | 0 | 0 | 0 | 0 | 0 | pest or weed control at 250 g/ha [7]: 0%; pest or weed control at 15.625 g/ha [8]: 0%; pest or weed control at 62.5 g/ha [8]: 0%; pest or weed control at 250 g/ha [8]: 0%; pest or weed control at 15.625 g/ha [9]: 0%; pest or weed control at 62.5 g/ha [9]: 0%; pest or weed control at 250 g/ha [9]: 0%; plant injury at 15.625 g/ha (corn (Zea mays) [10]): 0%; plant injury at 62.5 g/ha (corn (Zea mays) [10]): 0%; plant injury at 250 g/ha (corn (Zea mays) [10]): 0%; pest or weed control at 15.625 g/ha [11]: 0%; pest or weed control at 62.5 g/ha [11]: 0%; pest or weed control at 250 g/ha [11]: 0%; pest or weed control at 15.625 g/ha [12]: 0%; pest or weed control at 62.5 g/ha [12]: 0%; pest or weed control at 250 g/ha [12]: 0%
